Laboratory results as given in patent US20230107642A1 (Erasca, Inc., priority 2020, published 2023).

Experiments:
[1] = target: T1, Cys12 of the KRAS 4B G12C protein (Homo sapiens, UniProt P01116, G12C); experiment: In vitro covalent adduct formation (CAF) assay, LC-MS intact mass; format: binding; conditions: 10 uM compound, 60 min incubation
T1 construct: This protein contained 188 amino acids in total, including an N-terminal 6-Histidine tag; made in house; host or cells: E. coli BL21
Experimental: This Example provides a protocol for assessing covalent adduct formation (CAF) between the compounds of the present application and KRAS.
In vitro covalent adduct formation assay: Covalent adduct formation (CAF) reactions between Cys12 of the KRAS 4B G12C protein and some of the compounds of Tables 1 to 4 were measured in vitro using liquid chromatography-mass spectrometry (LC-MS).
Recombinant Human KRAS 4B protein containing the G12C mutation was used in compound screening experiments. This protein contained 188 amino acids in total, including an N-terminal 6-Histidine tag, followed by a Tobacco Etch Virus (TEV) tag, followed by residues 1-169 of the native KRAS 4B sequence. The exact mass of the protein was 21,310 Da as determined by mass spectrometry. The full amino acid sequence is shown below: […]
The recombinant protein was expressed in E. coli BL21 cells and purified using affinity chromatography via a Ni-NTA column. Protein stocks were nucleotide-exchanged to >95% GDP, concentrated to 4 mg/mL, and stored at −80° C. in storage buffer (50 mM HEPES pH 7.4, 50 mM NaCl, 5 mM MgCl2, 1 mM DTT). Pure KRAS 4B G12C protein was diluted to a concentration of 5 μM in Tris Buffered Saline, pH 7.4. The compounds were dissolved in DMSO and added to the diluted protein to make a 10 μM concentration. The total DMSO concentration in the reaction was 4%. The reaction was mixed by pipetting and incubated at 22° C. for one hour. Aliquots of the reaction were taken over time and diluted 2:1 in 0.1% formic acid. The intact mass of the protein samples was measured by LC-MS using a QExactive+ mass spectrometer (Thermo Scientific). An amount of 500 ng total protein was injected onto a C8 reverse phase column, eluted with a seven-minute gradient of 30%-90% acetonitrile/0.1% formic acid, and analyzed for intact mass by the mass spectrometer. Adducts identified were confirmed to be within 1 Dalton of the expected mass, and the relative ratios of free:adduct protein were used to quantify the percentage of protein bound by the compound. CAF reactions were run in duplicate, with a typical variability of ±5%.

K-Ras G12C = target: T2, K-Ras G12C (Homo sapiens, UniProt P01116, G12C); experiment: CAF assay (% CAF; method in Example 7, not in this part); format: binding; conditions: 10 uM compound, 1 h incubation
T2 construct: This protein contained 188 amino acids in total, including an N-terminal 6-Histidine tag; made in house; host or cells: E. coli BL21

| Compound | % CAF 10 uM @ 60 min [1] [%] | % CAF @ 10 uM, 1h (K-Ras G12C) [%] |
| --- | --- | --- |
| C=CC(=O)N1C[C@H](C)N(c2nc(=O)n3c4c(c(-c5cccc6cnn(C)c56)c(C(F)(F)F)cc24)SC[C@@H]3COC)C[C@H]1C (atropisomer, axis not shown) [Example 1101, (3S,10R)-7-((2S,5R)-4-acryloyl-2,5-dimethylpiperazin-1-yl)-3-(methoxymethyl)-10-(1-methyl-1H-indazol-7-yl)-9-(trifluoromethyl)-2,3-dihydro-5H-[1,4]thiazino[2,3,4-ij]quinazolin-5-one] | 0 | – |
| C=CC(=O)N1C[C@H](C)N(c2nc(=O)n3c4c(c(-c5cccc6cnn(C)c56)c(C(F)(F)F)cc24)SC[C@@H]3COC)C[C@H]1C (atropisomer, axis not shown) [Example 1102, (3S,10S)-7-((2S,5R)-4-acryloyl-2,5-dimethylpiperazin-1-yl)-3-(methoxymethyl)-10-(1-methyl-1H-indazol-7-yl)-9-(trifluoromethyl)-2,3-dihydro-5H-[1,4]thiazino[2,3,4-ij]quinazolin-5-one] | 94.5 | – |
| C=CC(=O)N1C[C@H](C)N(c2nc(=O)n3c4c(c(-c5ccc(F)cc5F)c(C(F)(F)F)cc24)SC[C@@H]3CN2CCN(CC(F)F)CC2)C[C@H]1C [Example 562, (3S)-7-((2S,5R)-4-acryloyl-2,5-dimethylpiperazin-1-yl)-3-((4-(2,2-difluoroethyl)piperazin-1-yl)methyl)-10-(2,4-difluorophenyl)-9-(trifluoromethyl)-2H-[1,4]thiazino[2,3,4-ij]quinazolin-5(3H)-one] | – | 83.6 |
| C=CC(=O)N1[C@H](C)CN(c2nc(=O)n3c4c(c(-c5cc(Cl)c(F)cc5F)c(C(F)(F)F)cc24)SC[C@@H]3COCOC)C[C@@H]1C [Example 567, (3S)-7-((3S,5R)-4-acryloyl-3,5-dimethylpiperazin-1-yl)-10-(5-chloro-2,4-difluorophenyl)-3-((methoxymethoxy)methyl)-9-(trifluoromethyl)-2H-[1,4]thiazino[2,3,4-ij]quinazolin-5(3H)-one] | – | 64.4 |
| C=CC(=O)N1[C@H](C)CN(c2nc(=O)n3c4c(c(-c5cc(Cl)c(F)cc5F)c(C(F)(F)F)cc24)SC[C@@H]3CO)C[C@@H]1C [Example 568, (3S)-7-((3S,5R)-4-acryloyl-3,5-dimethylpiperazin-1-yl)-10-(5-chloro-2,4-difluorophenyl)-3-(hydroxymethyl)-9-(trifluoromethyl)-2H-[1,4]thiazino[2,3,4-ij]quinazolin-5(3H)-one] | – | 52.3 |
| C=CC(=O)N1C2CC(=O)CC1CN(c1nc(=O)n3c4c(c(-c5ccc(F)cc5F)c(C(F)(F)F)cc14)SC[C@@H]3COC)C2 [Example 571, (3S)-7-(9-acryloyl-7-oxo-3,9-diazabicyclo[3.3.1]nonan-3-yl)-10-(2,4-difluorophenyl)-3-(methoxymethyl)-9-(trifluoromethyl)-2H-[1,4]thiazino[2,3,4-ij]quinazolin-5(3H)-one] | – | 95.2 |
| C=CC(=O)N1CCN(c2nc(=O)n3c4c(c(-c5cc(Cl)c(F)cc5F)c(C(F)(F)F)cc24)SC[C@@H]3COC)CC1 [Example 572, (3S)-7-(4-acryloylpiperazin-1-yl)-10-(5-chloro-2,4-difluorophenyl)-3-(methoxymethyl)-9-(trifluoromethyl)-2H-[1,4]thiazino[2,3,4-ij]quinazolin-5(3H)-one] | – | 93.6 |
| C=CC(=O)N1C[C@H](C)N(c2nc(=O)n3c4c(c(-c5ccc(F)cc5)c(Cl)cc24)SC[C@@H]3COC)C[C@H]1C [Example 573, (S)-7-((2S,5R)-4-acryloyl-2,5-dimethylpiperazin-1-yl)-9-chloro-10-(4-fluorophenyl)-3-(methoxymethyl)-2H-[1,4]thiazino[2,3,4-ij]quinazolin-5(3H)-one] | – | 76.4 |
| C=CC(=O)N1C[C@H](C)N(c2nc(=O)n3c4c(c(-c5ccc(F)cc5)c(C(F)(F)F)cc24)SC[C@@H]3CN2CCN(CC(F)F)CC2)C[C@H]1C [Example 574, (S)-7-((2S,5R)-4-acryloyl-2,5-dimethylpiperazin-1-yl)-3-((4-(2,2-difluoroethyl)piperazin-1-yl)methyl)-10-(4-fluorophenyl)-9-(trifluoromethyl)-2H-[1,4]thiazino[2,3,4-ij]quinazolin-5(3H)-one] | – | 83.2 |
| C=CC(=O)N1C[C@H](C)N(c2nc(=O)n3c4c(c(-c5ccc(F)cc5F)c(C(F)(F)F)cc24)SC[C@@H]3CN2CCN(CC(N)=O)CC2)C[C@H]1C [Example 575, 2-(4-(((3S)-7-((2S,5R)-4-acryloyl-2,5-dimethylpiperazin-1-yl)-10-(2,4-difluorophenyl)-5-oxo-9-(trifluoromethyl)-3,5-dihydro-2H-[1,4]thiazino[2,3,4-ij]quinazolin-3-yl)methyl)piperazin-1-yl)acetamide] | – | 89.5 |
| C=CC(=O)N1CCN(c2nc(=O)n3c4c(c(-c5cc(Cl)c(F)cc5F)c(C(F)(F)F)cc24)SC[C@@H](OC)C3)CC1 [Example 582, (3S)-8-(4-acryloylpiperazin-1-yl)-11-(5-chloro-2,4-difluorophenyl)-3-methoxy-10-(trifluoromethyl)-3,4-dihydro-2H,6H-[1,4]thiazepino[2,3,4-ij]quinazolin-6-one] | – | 88 |
| C=CC(=O)N1CCN(c2nc(=O)n3c4c(c(-c5cc(Cl)c(F)cc5F)c(C(F)(F)F)cc24)SC[C@@H](OC)C3)[C@@H](C)C1 [Example 583, (3S)-8-((S)-4-acryloyl-2-methylpiperazin-1-yl)-11-(5-chloro-2,4-difluorophenyl)-3-methoxy-10-(trifluoromethyl)-3,4-dihydro-2H,6H-[1,4]thiazepino[2,3,4-ij]quinazolin-6-one] | – | 91 |
| C=CC(=O)N1[C@H](C)CN(c2nc(=O)n3c4c(c(-c5ccc(F)cc5)c(C(F)(F)F)cc24)SC[C@H](OC)C3)C[C@@H]1C [Example 584, (R)-8-((3S,5R)-4-acryloyl-3,5-dimethylpiperazin-1-yl)-11-(4-fluorophenyl)-3-methoxy-10-(trifluoromethyl)-3,4-dihydro-2H,6H-[1,4]thiazepino[2,3,4-ij]quinazolin-6-one] | – | 97 |
| C=CC(=O)N1[C@H](C)CN(c2nc(=O)n3c4c(c(-c5ccc(F)cc5)c(C(F)(F)F)cc24)SC[C@@H](OC)C3)C[C@@H]1C [Example 585, (S)-8-((3S,5R)-4-acryloyl-3,5-dimethylpiperazin-1-yl)-11-(4-fluorophenyl)-3-methoxy-10-(trifluoromethyl)-3,4-dihydro-2H,6H-[1,4]thiazepino[2,3,4-ij]quinazolin-6-one] | – | 97 |
| C=CC(=O)N1[C@H](C)CN(c2nc(=O)n3c4c(c(-c5ccc(F)cc5F)c(C(F)(F)F)cc24)SC[C@H](N(C)C)C3)C[C@@H]1C [Example 586, (3R)-8-((3S,5R)-4-acryloyl-3,5-dimethylpiperazin-1-yl)-11-(2,4-difluorophenyl)-3-(dimethylamino)-10-(trifluoromethyl)-3,4-dihydro-2H,6H-[1,4]thiazepino[2,3,4-ij]quinazolin-6-one] | – | 40 |
| C=CC(=O)N1[C@H](C)CN(c2nc(=O)n3c4c(c(-c5cc(Cl)c(F)cc5F)c(C(F)(F)F)cc24)SC[C@@H]3CN(C)C)C[C@@H]1C [Example 587, (3S)-7-((3S,5R)-4-acryloyl-3,5-dimethylpiperazin-1-yl)-10-(5-chloro-2,4-difluorophenyl)-3-((dimethylamino)methyl)-9-(trifluoromethyl)-2H-[1,4]thiazino[2,3,4-ij]quinazolin-5(3H)-one] | – | 58.9 |
| C=CC(=O)N1C[C@H](C)N(c2nc(=O)n3c4c(c(-c5ccc(F)cc5F)c(C(F)(F)F)cc24)SCC2(COC2)C3)C[C@H]1C [Example 588, 8′-((2S,5R)-4-Acryloyl-2,5-dimethylpiperazin-1-yl)-11′-(2,4-difluorophenyl)-10′-(trifluoromethyl)-2′H,4′H,6′H-spiro[oxetane-3,3′-[1,4]thiazepino[2,3,4-ij]quinazolin]-6′-one] | – | 95.9 |
| [2H]C1([2H])N(C(=O)C=C)C([2H])([2H])C([2H])([2H])N(c2nc(=O)n3c4c(c(-c5ccc(F)cc5F)c(C(F)(F)F)cc24)SCC2(COC2)C3)C1([2H])[2H] [Example 589, 8′-(4-Acryloylpiperazin-1-yl-2,2,3,3,5,5,6,6-d8)-11′-(2,4-difluorophenyl)-10′-(trifluoromethyl)-2′H,4′H,6′H-spiro[oxetane-3,3′-[1,4]thiazepino[2,3,4-ij]quinazolin]-6′-one] | – | 92.9 |
